# Assay: MicroPET imaging and organ uptake quantification after tail vein injection in normal nude mice
# Type: in vivo, mouse
# Protocol: All animal studies were approved by the University of Southern California Institutional Animal Care and Use Committee. Female athymic nude mice (about 4-6 weeks old, with a body weight of 20-25 g) were obtained from Harlan Laboratories (Livermore, Calif.). MicroPET scans were performed using an Inveon microPET scanner (Siemens Medical Solutions, Malvern, Pa., USA). A normal nude mouse was anesthetized using 2% isoflurane and injected with 1.3-2.5 MBq of [^18F]-ClFMBP via tail vein. At 0.5, 1, and 2 h post injection, static emission scans were acquired for 10 min. Raw PET images were reconstructed using 2D ordered subset expectation maximization (OSEM) algorithms with scatter, random and attenuation correction.
# The 2D projection of PET images at 2 h post-injection is shown.
# Accumulation of [^18F]-ClFMBP in other mouse organs was minimal.
# [1] = microPET quantification, 2 h post-injection, tail vein, normal nude mice
structure (smiles),measurement,setting,value
"O=P(O)(O)C([18F])(Cl)P(=O)(O)O [[^18F]-ClFMBP, (chloro[^18F]-fluoromethylene)bisphosphonic acid]",visibility of joints and bones in microPET images,"0.5, 1 and 2 h post-injection, normal nude mice",clearly visible with high contrast to contralateral background
same,uptake of radioactivity in the bladder,"microPET images, normal nude mice",Predominant uptake
same,accumulation in other mouse organs,"microPET quantification, 2 h post-injection",minimal
same,uptake in bones,[1],2.72±0.05 % ID/g
same,uptake in joints,[1],2.37±0.08 % ID/g
same,uptake in mouse kidneys,[1],0.16±0.08 % ID/g
same,uptake in mouse liver,[1],0.21±0.04 % ID/g
same,route of excretion,suggested by bladder uptake in microPET images,mainly through the renal system
